Experimental findings from US8497380B2, “Substituted acetophenones useful as PDE4 inhibitors” (Leo Pharma A/S, priority 2006, dated 2013) are described below.

This assay relates to Human peripheral blood mononuclear cells (PBMC). Put plainly: TNFalfa-Release. The class given is cell-based. The conditions noted are these: inhibition of TNF-a secretion, PBMC pre-incubated 30 minutes, stimulated 18 hours with lipopolysaccharide. As for the experimental part: Human peripheral blood mononuclear cells (PBMC) are Isolated from buffy coats. The blood is mixed with saline at a ratio of 1:1, and the PBMC is isolated by the use of Lymphoprep Tubes™ (Nycomed, Norway). The PBMC is suspended in RPMI1640 with 2% foetal calf serum (FCS), pen/strep and 2 mM L-glutamine at a concentration of 5×105 c/ml. The cells are pre-incubated for 30 minutes with the test compounds in 96 well tissue culture plates and stimulated for 18 hours with lipopolysaccharide 1 mg/ml (Sigma). The level of TNF-a is measured in the culture supernatant by enzyme immuno assays using primary and secondary biotinylated antibodies from R&D systems. Results are expressed as pIC50 values calculated from inhibition curves using as positive controls the secretion in LPS stimulated wells and as negative controls the secretion in unstimulated cells.
A word on the IC50: it is the concentration needed to halve the response being measured. Compound `COc1cccc(CNC(=O)COc2c(C(=O)Cc3c(Cl)cncc3Cl)ccc(OC)c2OC)c1` [Compound 216, 2-{6-[2-(3,5-Dichloro-pyridin-4-yl)-acetyl]-2,3-dimethoxy-phenoxy}-N-(3-methoxy-benzyl)-acetamide] showed an IC50 of under 1 µM.
Next, `COc1ccc(C(=O)Cc2c(Cl)cncc2Cl)c(OCC(=O)NCc2ccncc2)c1OC` [Compound 232, 2-{6-[2-(3,5-Dichloro-pyridin-4-yl)-acetyl]-2,3-dimethoxy-phenoxy}-N-pyridin-4-ylmethyl-acetamide]: under 1 µM; `COc1ccc(C(=O)Cc2c(Cl)cncc2Cl)c(OCC(=O)N2CCOCC2)c1OC` [Compound 204, 2-(3,5-Dichloro-pyridin-4-yl)-1-[3,4-dimethoxy-2-(2-morpholin-4-yl-2-oxo-ethoxy)-phenyl]-ethanone]: under 1 µM.
With `COc1ccc(C(=O)Cc2c(Cl)cncc2Cl)c(OCc2cccc(OC(F)(F)F)c2)c1OC` [Compound 163, 2-(3,5-Dichloro-pyridin-4-yl)-1-[3,4-dimethoxy-2-(3-trifluoromethoxy-benzyloxy)-phenyl]-ethanone] the figure was under 1 µM; with `COc1ccc(C(=O)Cc2c(Cl)cncc2Cl)c(OCc2ccccc2OC(F)F)c1OC` [Compound 168, 2-(3,5-Dichloro-pyridin-4-yl)-1-[2-(2-difluoromethoxy-benzyloxy)-3,4-dimethoxy-phenyl]-ethanone], under 1 µM.
With `COc1ccc(C(=O)Cc2c(Cl)cncc2Cl)c(OCC(=O)NCc2ccc(C)cc2)c1OC` [Compound 240, 2-{6-[2-(3,5-Dichloro-pyridin-4-yl)-acetyl]-2,3-dimethoxy-phenoxy}-N-(4-methyl-benzyl)-acetamide] the figure was under 1 µM; with `COc1ccc(C(=O)Cc2c(Cl)cncc2Cl)c(OCc2ccc(Cl)s2)c1OC` [Compound 121, 1-[2-(5-Chloro-thiophen-2-ylmethoxy)-3,4-dimethoxy-phenyl]-2-(3,5-dichloro-pyridin-4-yl)-ethanone], under 1 µM.
Consider `COc1ccc(C(=O)Cc2c(Cl)cncc2Cl)c(OCC(=O)OCc2ccccc2)c1OC` [Compound 132, {6-[2-(3,5-Dichloro-pyridin-4-yl)-acetyl]-2,3-dimethoxy-phenoxy}-acetic acid benzyl ester], for which the 50% inhibitory concentration (IC50) is under 1 µM.
Next, `COc1ccc(C(=O)Cc2c(Cl)cncc2Cl)c(OCC(=O)NCc2ccccc2Cl)c1OC` [Compound 244, N-(2-Chloro-benzyl)-2-{6-[2-(3,5-dichloro-pyridin-4-yl)-acetyl]-2,3-dimethoxy-phenoxy}-acetamide]: under 1 µM; `COC(=O)c1cccc(COc2c(C(=O)Cc3c(Cl)cncc3Cl)ccc(OC)c2OC)c1` [Compound 134, 3-{6-[2-(3,5-Dichloro-pyridin-4-yl)-acetyl]-2,3-dimethoxy-phenoxymethyl}-benzoic acid methyl ester]: under 1 µM.
On to `COc1ccc(C(=O)Cc2c(Cl)cncc2Cl)c(OCC(=O)N[C@@H](C)c2ccccc2)c1OC` [Compound 226, (S)-2-(6-[2-(3,5-Dichloro-pyridin-4-yl)-acetyl]-2,3-dimethoxy-phenoxy)-N-(1-phenyl-ethyl)-acetamide], for which the IC50 is under 1 µM.
Next, `COc1ccc(CCOc2c(C(=O)Cc3c(Cl)cncc3Cl)ccc(OC)c2OC)cc1` [Compound 126, 2-(3,5-Dichloro-pyridin-4-yl)-1-{3,4-dimethoxy-2-[2-(4-methoxy-phenyl)-ethoxy]-phenyl}-ethanone]: under 1 µM.
With `COc1ccc(C(=O)Cc2c(Cl)cncc2Cl)c(OCc2ccc(C)cc2)c1OC` [Compound 143, 2-(3,5-Dichloro-pyridin-4-yl)-1-[3,4-dimethoxy-2-(4-methyl-benzyloxy)-phenyl]-ethanone] the figure was under 1 µM; with `COc1ccc(C(=O)Cc2c(Cl)cncc2Cl)c(OCc2csc(C)n2)c1OC` [Compound 116, 2-(3,5-Dichloro-pyridin-4-yl)-1-[3,4-dimethoxy-2-(2-methyl-thiazol-4-ylmethoxy)-phenyl]-ethanone], under 1 µM; with `COc1ccc(C(=O)Cc2c(Cl)cncc2Cl)c(OCc2ccc(C)c(F)c2F)c1OC` [Compound 171, 2-(3,5-Dichloro-pyridin-4-yl)-1-(2-(2,3-difluoro-4-methyl-benzyloxy)-3,4-dimethoxy-phenyl)-ethanone], under 1 µM.
With `COc1ccc(C(=O)Cc2c(Cl)cncc2Cl)c(OCc2nnc(C3CC3)s2)c1OC` [Compound 117] the figure was under 1 µM; with `COc1ccc(C(=O)Cc2c(Cl)cncc2Cl)c(OCc2ccccc2)c1OC` [Compound 113, 1-(2-Benzyloxy-3,4-dimethoxy-phenyl)-2-(3,5-dichloro-pyridin-4-yl)-ethanone], under 1 µM.
Consider `COc1cccc(COc2c(C(=O)Cc3c(Cl)cncc3Cl)ccc(OC)c2OC)c1` [Compound 177, 2-(3,5-Dichloro-pyridin-4-yl)-1-[3,4-dimethoxy-2-(3-methoxy-benzyloxy)-phenyl]-ethanone], for which the IC50 was under 1 µM.
Next, `COc1ccc(C(=O)Cc2c(Cl)cncc2Cl)c(OCC(C)c2ccccc2)c1OC` (centres unmarked) [Compound 284, 2-(3,5-Dichloro-pyridin-4-yl)-1-[3,4-dimethoxy-2-(2-phenyl-propoxy)-phenyl]-ethanone]: under 1 µM; `COc1ccccc1CCOc1c(C(=O)Cc2c(Cl)cncc2Cl)ccc(OC)c1OC` [Compound 128, 2-(3,5-Dichloro-pyridin-4-yl)-1-{3,4-dimethoxy-2-[2-(2-methoxy-phenyl)-ethoxy]-phenyl}-ethanone]: under 1 µM; `COc1ccc(C(=O)Cc2c(Cl)cncc2Cl)c(OCCc2ccc(S(C)(=O)=O)cc2)c1OC` [Compound 282, 2-(3,5-Dichloro-pyridin-4-yl)-1-{2-[2-(4-methanesulfonyl-phenyl)-ethoxy]-3,4-dimethoxy-phenyl}-ethanone]: under 1 µM.
For the compound `COc1ccc(C(=O)Cc2c(Cl)cncc2Cl)c(OCc2cc(C)on2)c1OC` [Compound 108, 2-(3,5-Dichloro-pyridin-4-yl)-1-[3,4-dimethoxy-2-(5-methyl-isoxazol-3-ylmethoxy)-phenyl]-ethanone], the 50% inhibitory concentration (IC50) is under 1 µM.
Take `COc1ccc(C(=O)Cc2c(Cl)cncc2Cl)c(OCCc2cccnc2)c1OC` [Compound 280, 2-(3,5-Dichloro-pyridin-4-yl)-1-[3,4-dimethoxy-2-(2-pyridin-3-yl-ethoxy)-phenyl]-ethanone]: the IC50 was under 1 µM.
With `COc1ccc(C(=O)Cc2c(Cl)cncc2Cl)c(OCC(=O)NCc2ccc(Cl)cc2)c1OC` [Compound 248, N-(4-Chloro-benzyl)-2-{6-[2-(3,5-dichloro-pyridin-4-yl)-acetyl]-2,3-dimethoxy-phenoxy}-acetamide] the figure was under 1 µM; with `COc1ccc(CNC(=O)COc2c(C(=O)Cc3c(Cl)cncc3Cl)ccc(OC)c2OC)cc1` [Compound 213, 2-{6-[2-(3,5-Dichloro-pyridin-4-yl)-acetyl]-2,3-dimethoxy-phenoxy}-N-(4-methoxy-benzyl)-acetamide], under 1 µM.
With `CCOc1c(OC)ccc(C(=O)Cc2c(Cl)cncc2Cl)c1O` [Compound 262, 2-(3,5-Dichloro-pyridin-4-yl)-1-(3-ethoxy-2-hydroxy-4-methoxy-phenyl)-ethanone] the figure was under 1 µM.
